Assay results taken from publication PMC7497253, “Structure‐Based Macrocyclization of Substrate Analogue NS2B‐NS3 Protease Inhibitors of Zika, West Nile and Dengue viruses” (Chemmedchem, 2020).
Where two headings read alike, the source gives them in different places. Starred links: 1 amine or outer side, 2 acyl side, 3 side chain; linkers in the order of their positions; H or OH if unused. Positions of bridges follow the written chain, without caps; N, C: chain ends. Non-standard residues stand in square brackets, D forms with d. Residues, ends and D or L forms follow the SMILES beside them. dεLys(Nα-amidino) = N=C(N)N[C@H](CCCCN[*:1])C(=O)[*:2]; NHCH2(1,3-C6H4)CH2CO = O=C(Cc1cccc(CN[*:1])c1)[*:2]; βAla = NCCC(=O)O

Assays:
Format in all cases: biochemical
[1] = target: T1, bZiPro (unlinked binary Zika virus NS2B-NS3 protease) (Zika virus, UniProt A0A024B7W1); assay: Enzyme kinetics with bZiPro, fluorogenic substrate Phac-Leu-Lys-Lys-Arg-AMC
T1 construct: The viral protease consists of the N‐terminal third of the nonstructural protein NS3; the NS2B construct ends at Glu96; His6 (cleaved yes); made in house
T1 sequence (A0A024B7W1 1503-1680 limits assumed): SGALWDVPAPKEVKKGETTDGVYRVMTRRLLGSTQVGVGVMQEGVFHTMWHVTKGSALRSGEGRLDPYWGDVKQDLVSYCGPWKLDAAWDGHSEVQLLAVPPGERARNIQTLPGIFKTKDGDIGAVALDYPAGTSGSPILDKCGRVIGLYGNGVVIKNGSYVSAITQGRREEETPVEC
T1 sequence (A0A024B7W1 1425-1464 limits assumed): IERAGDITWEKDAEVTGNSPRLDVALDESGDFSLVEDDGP
Method: (§1) Enzyme kinetics. Measurements with bZiPro15 and the covalent WNV NS2B‐NS3 construct^10 were performed at room temperature in black 96 well plates using a Fluoroskan Ascent® plate reader (Thermo Fisher Scientific, Vantaa, Finland) with λ ex at 355 nm and λ em at 460 nm. Each well contained 125 μL inhibitor dissolved in buffer (for bZiPro: 20 mM Tris×HCl pH 8.5, 2 mM DTT, 10 w/v glycerol and 0.01 w/v Triton X‐100;18 for WNV protease: 100 mM Tris×HCl pH 8.5, containing 32 w/v glycerol and 0.01 w/v Triton X‐10012) and 50 μL substrate Phac‐Leu‐Lys‐Lys‐Arg‐AMC12 (40 μM for bZiPro (10 μM in assay, K M=1.4 μM) and 400 μM for the WNV protease (100 μM in assay, K M=53 μM)). The measurements were started by addition of 25 μL enzyme solution (16 nM for bZiPro (2.0 nM in assay), and 64 nM for the WNV protease (8.0 nM in assay)). Data points were collected each 15 s over a period of 10 min using eight different inhibitor concentrations. […] The K i values and their standard deviation were obtained from at least three independent measurements.(1) vi=Vmax×[S]/KM1+[I]/Ki+[S]
The constants K M and V max were obtained from independent measurements with six different substrate concentrations in absence of inhibitor. For inhibitor 10 with bZiPro, additional measurements at three substrate concentrations (10, 5, and 2.5 μM in assay) were performed to obtain the Dixon plot shown in Figure 4.

[2] = target: T2, WNV NS2B-NS3 protease (WNV-Pro) (West Nile virus, UniProt P06935); assay: Enzyme kinetics with the covalent WNV NS2B-NS3 construct, substrate Phac-Leu-Lys-Lys-Arg-AMC
T2 construct: NS3 has to form a complex with its cofactor NS2B to achieve proteolytic activity; The viral protease consists of the N‐terminal third of the nonstructural protein NS3
T2 sequence (P06935 1424-1463): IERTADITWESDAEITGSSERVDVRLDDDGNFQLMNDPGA
T2 sequence (P06935 1502-1679): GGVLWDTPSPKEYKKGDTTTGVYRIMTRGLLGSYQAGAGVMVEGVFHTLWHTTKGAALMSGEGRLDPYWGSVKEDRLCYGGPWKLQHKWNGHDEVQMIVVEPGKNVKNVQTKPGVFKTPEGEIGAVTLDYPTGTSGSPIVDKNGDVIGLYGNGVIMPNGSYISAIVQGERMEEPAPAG
Method: as §1

[3] = target: T3, bD4Pro (unlinked binary dengue-4 virus NS2B-NS3 protease) (Dengue virus type 4, UniProt Q2YHF2); assay: Enzyme kinetics with bD4Pro, substrate Benzoyl-Nle-Lys-Arg-Arg-AMC
T3 construct: The viral protease consists of the N‐terminal third of the nonstructural protein NS3; NS3 has to form a complex with its cofactor NS2B to achieve proteolytic activity; His6 (cleaved yes); made in house
T3 sequence (Q2YHF2 1475-1652 limits assumed): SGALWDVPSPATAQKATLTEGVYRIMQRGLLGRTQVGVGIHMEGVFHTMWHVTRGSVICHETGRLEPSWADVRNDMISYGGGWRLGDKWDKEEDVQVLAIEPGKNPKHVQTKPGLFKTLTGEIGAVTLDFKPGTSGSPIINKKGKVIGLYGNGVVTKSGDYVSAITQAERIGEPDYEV
T3 sequence (Q2YHF2 1397-1436 limits assumed): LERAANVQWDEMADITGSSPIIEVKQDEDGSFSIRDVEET
Method: Measurements with the dengue 4 virus protease construct (bD4Pro; expressed and purified by a similar methodology as described for bZiPro15 with slight modification of using Tobacco Etch Virus (TEV) protease instead of thrombin for His6‐tag cleavage) were performed in a Cytation 3 Mulitmode plate reader with λ ex at 380 nm and λ em at 460 nm. Assays were carried out as triplicate at 37 °C. Before measurement, the protease (final assay concentration 3 nM) was preincubated with varying concentrations of inhibitors in assay buffer (20 mM Tris pH 8.5, 10 % glycerol, 0.01 % Triton X‐100) for 1 h at room temperature in Corning black clear bottom 96‐well plates. The reaction was started by addition of the substrate Benzoyl‐Nle‐Lys‐Arg‐Arg‐AMC (final assay concentration 50 μM, K M=48.4 μM). Fluorescent readings were recorded at 1‐minute intervals over 10 minutes. The steady‐state rates v i in presence of inhibitor were calculated from the slopes of the progress curves using Graph Pad Prism. The v i values were fitted to Equation (2) as function of the inhibitor concentration [I] providing the IC50 values, where v 0 is the rate in absence of inhibitor and s a slope factor. The obtained IC50 values were finally converted into K i values by the Cheng‐Prusoff Equation (2).(2) vi=v0/1+I/IC50^s (3) Ki=IC50/1+S/KM

[4] = K i bZiPro, mean±SD of at least three independent measurements, substrate 10 μM in assay, room temperature, pH 8.5
[5] = mean±SD of at least three independent measurements, substrate 10 μM in assay, room temperature, pH 8.5, read-out: K i bZiPro
[6] = mean±SD of at least three independent measurements, substrate 100 μM in assay, room temperature, pH 8.5, read-out: K i WNV-Pro
[7] = mean±SD of at least three independent measurements, 37 °C, IC50 converted into K i by Cheng-Prusoff, read-out: K i bD4Pro

| SMILES | Ki [1, 4] | Ki [2] | Ki [3] | also measured |
| --- | --- | --- | --- | --- |
| N=C(N)N[C@H](CCCCNC(=O)[C@H](CCCCN)NC(=O)[C@H](CCCCN)NC(=O)Cc1cccc(CNC(=O)CN)c1)C(N)=O [Inhibitor 30] | 13.6 ± 2.6 nM | 1550 ± 380 nM | 775 ± 47 nM | fold improved potency compared with 29 ([1]; uncharged amide analogue versus free P1 carboxyl compound 29): more than 100 fold |
| N=C(N)N[C@@H]1CCCCNC(=O)[C@H](CCCCN)NC(=O)[C@H](CCCCN)NC(=O)CNC(=O)CNC(=O)CCNC1=O [Inhibitor 28] (cyclo([βAla]GGKK[dεLys(Nα-amidino)])) | – | – | – | Ki [1, 5]: 12.8 ± 0.5 nM; Ki [2, 6]: 974 ± 134 nM; Ki [3, 7]: 2720 ± 190 nM |
| CC(C)[C@@H]1NC(=O)[C@H](NC(=N)N)CCCCNC(=O)[C@H](CCCCN)NC(=O)[C@H](CCCCN)NC(=O)Cc2cccc(c2)CNC1=O [Inhibitor 17] | 42.8 ± 2.2 nM | 6710 ± 320 nM | 2810 ± 180 nM | – |
| N=C(N)N[C@@H]1CCCCNC(=O)[C@H](CCCCN)NC(=O)[C@H](CCCCN)NC(=O)Cc2cccc(c2)CNC(=O)[C@H]2CCCN2C1=O [Inhibitor 19] | 17.7 ± 0.5 nM | 850 ± 68 nM | 4080 ± 260 nM | – |
| NCCCC[C@@H]1NC(=O)Cc2ccc(cc2)CNC(=O)CCCNC(=O)[C@H](N)CCCCNC(=O)[C@H](CCCCN)NC1=O [Inhibitor 6] | – | – | – | Ki [1, 5]: 24700 ± 7200 nM; Ki [2, 6]: 68100 ± 5000 nM; Ki [3, 7]: 94500 ± 11600 nM |
| N=C(N)N[C@@H]1CCCCNC(=O)[C@H](CCCCN)NC(=O)[C@H](CCCCN)NC(=O)CCNC(=O)CNC(=O)CNC1=O [Inhibitor 26] (cyclo(GG[βAla]KK[dεLys(Nα-amidino)])) | – | – | – | Ki [1, 5]: 1.72 ± 0.03 nM; Ki [2, 6]: 68.6 ± 13.1 nM; Ki [3, 7]: 160 ± 5 nM |
| N=C(N)N[C@@H]1CCCCNC(=O)[C@H](CCCCN)NC(=O)[C@H](CCCCN)NC(=O)CNC(=O)CNC(=O)CNC1=O [Inhibitor 25] (cyclo(GGGKK[dεLys(Nα-amidino)])) | 3.74 ± 0.2 nM | 129 ± 7 nM | 378 ± 27 nM | – |
| N=C(N)N[C@@H]1CCCCNC(=O)[C@H](CCCCN)NC(=O)[C@H](CCCCN)NC(=O)Cc2cccc(c2)CNC(=O)CCCNC1=O [Inhibitor 8] | 4.33 ± 0.35 nM | 702 ± 83 nM | 286 ± 9 nM | – |
| CC(=O)NCc1cccc(CC(=O)N[C@@H](CCCCN)C(=O)N[C@@H](CCCCN)C(=O)NCCCC[C@@H](NC(=N)N)C(N)=O)c1 [Inhibitor 31] | 9.48 ± 0.61 nM | 1480 ± 100 nM | 1210 ± 90 nM | – |
| NCCCC[C@@H]1NC(=O)Cc2ccc(cc2)CNC(=O)CCCNC(=O)[C@H](N)CCCNC(=O)[C@H](CCCCN)NC1=O [Inhibitor 7] | – | – | – | Ki [1, 5]: 13200 ± 1700 nM; Ki [2, 6]: 31700 ± 3600 nM; Ki [3, 7]: 30600 ± 3900 nM |
| NCCCC[C@@H]1NC(=O)Cc2cccc(c2)CNC(=O)CNC(=O)[C@H](N)CCCCNC(=O)[C@H](CCCCN)NC1=O [Inhibitor 20] (H-[dK]G[NHCH2(1,3-C6H4)CH2CO]KK; lactam 1-C) | 23000 nM | 99000 nM | 282000 nM | – |
| N=C(N)N[C@@H]1CCCCNC(=O)[C@H](CCCCN)NC(=O)[C@H](CCCCN)NC(=O)CNC(=O)CCNC(=O)CNC1=O [Inhibitor 27] (cyclo(G[βAla]GKK[dεLys(Nα-amidino)])) | – | – | – | Ki [1, 5]: 7.35 ± 0.39 nM; Ki [2, 6]: 468 ± 3 nM; Ki [3, 7]: 815 ± 79 nM |
| CC(=O)NCc1cccc(CC(=O)N[C@@H](CCCCN)C(=O)N[C@@H](CCCCN)C(=O)NCCCCCNC(=N)N)c1 [Inhibitor 32] | 88.2 ± 3.8 nM | 4940 ± 530 nM | 18100 ± 1200 nM | – |
| N=C(N)N[C@@H]1CCCCNC(=O)[C@H](CCCCN)NC(=O)[C@H](CCCCN)NC(=O)CCCCNC(=O)CNC1=O [Inhibitor 23] | 16.7 ± 3.4 nM | 1220 ± 20 nM | 1120 ± 50 nM | – |
| N=C(N)N[C@H]1CCCCNC(=O)[C@H](CCCCN)NC(=O)[C@H](CCCCN)NC(=O)Cc2ccc(cc2)CNC(=O)CCCNC1=O [Inhibitor 2] | 91.8 ± 6 nM | 6300 ± 490 nM | 11000 ± 1000 nM | – |
| C[C@H]1NC(=O)[C@H](NC(=N)N)CCCCNC(=O)[C@H](CCCCN)NC(=O)[C@H](CCCCN)NC(=O)Cc2cccc(c2)CNC1=O [Inhibitor 16] | 3.52 ± 1.09 nM | 237 ± 21 nM | 125 ± 4 nM | – |
| NCCCC[C@@H]1NC(=O)Cc2cccc(c2)CNC(=O)CNC(=O)[C@H](NC(N)=O)CCCCNC(=O)[C@H](CCCCN)NC1=O [Inhibitor 21] | 12000 nM | 68000 nM | 135000 nM | – |
| CC(C)[C@H]1NC(=O)[C@H](NC(=N)N)CCCCNC(=O)[C@H](CCCCN)NC(=O)[C@H](CCCCN)NC(=O)Cc2cccc(c2)CNC1=O [Inhibitor 18] | 7.74 ± 0.66 nM | 439 ± 28 nM | 486 ± 27 nM | – |
| N=C(N)N[C@@H]1CCCNC(=O)[C@H](CCCCN)NC(=O)[C@H](CCCCN)NC(=O)Cc2ccc(cc2)CNC(=O)CCCNC1=O [Inhibitor 5] | 3610 ± 1330 nM | 22000 ± 4000 nM | 60500 ± 5700 nM | – |
| N=C(N)N[C@H]1CCCNC(=O)[C@H](CCCCN)NC(=O)[C@H](CCCCN)NC(=O)Cc2ccc(cc2)CNC(=O)CCCNC1=O [Inhibitor 3] | 846 ± 111 nM | 27800 ± 4400 nM | 117000 ± 5000 nM | – |
| N=C(N)N[C@@H]1CCCCNC(=O)[C@H](CCCCN)NC(=O)[C@H](CCCCN)NC(=O)CCCNC(=O)CNC1=O [Inhibitor 22] | 124 ± 8 nM | 6700 ± 520 nM | 6090 ± 470 nM | – |
| N=C(N)N[C@@H]1CCCCNC(=O)[C@H](CCCCN)NC(=O)[C@H](CCCCN)NC(=O)Cc2cccc(c2)NC(=O)CCCNC1=O [Inhibitor 14] | 106 ± 29 nM | 16500 ± 4600 nM | 5800 ± 360 nM | – |
| N=C(N)N[C@H](CCCCNC(=O)[C@H](CCCCN)NC(=O)[C@H](CCCCN)NC(=O)Cc1cccc(CNC(=O)CN)c1)C(=O)O [Inhibitor 29] | 2040 ± 600 nM | 51600 ± 700 nM | 75000 ± 3400 nM | times less potent inhibitor of bZiPro than analogue 10 ([1]; compared with cyclic analogue 10): more than 1000 times |
| N=C(N)N[C@H]1CC[C@H](CNC(=O)[C@H](CCCCN)NC(=O)[C@H](CCCCN)NC(=O)Cc2ccc(Cl)c(Cl)c2)CC1 [Inhibitor 1, 3,4‐dichloro‐Phac‐Lys‐Lys‐GCMA, reference compound] | – | – | – | Ki ([1]; K i against bZiPro / ZIKV protease, value given in running text): 14 nM |
